Results published in patent US6392045B1, “9-azobicyclo[3.3.1] non-2-ene derivatives as cholinergic ligands at nicotinic ACH receptors” (NeuroSearch A/S, priority 1997, dated 2002).
Like-named read-outs stand apart in the source and are kept apart here.

Legend:
[1] = biological target: nAChRs comprised of α4 and β2 subunits (Rattus norvegicus, UniProt P09483+P12390); assay: In vitro inhibition of 3H-cytisine binding
Description: In Vitro Inhibition of ^3H-cytisine Binding
The predominant subtype with high affinity for nicotine is comprised of α4 and β2 subunits. nAChRs of the latter type can selectively be labelled by the nicotine agonist ^3H-cytisine.
Tissue Preparation: Preparations are performed at 0-4° C. unless otherwise indicated. […] The homogenate is centrifuged at 27,000×g for 10 min. The supernatant is discarded and the pellet is resuspended in fresh buffer and centrifuged a second time. The final pellet is resuspended in fresh buffer (35 ml per g of original tissue) and used for binding assays.
Assay: Aliquots of 500 μl homogenate are added to 25 μl of test solution and 25 μl of ^3H-cytisine (1 nM, final concentration), mixed and incubated for 90 min at 2° C. Non-specific binding is determined using (−)-nicotine (100 μM, final concentration). After incubation the samples are added 5 ml of ice-cold buffer and poured directly onto Whatman GF/C glass fibre filters under suction and immediately washed with 2×5 ml ice-cold buffer. The amount of radioactivity on the filters is determined by conventional liquid scintillation counting. Specific binding is total binding minus non-specific binding.

[2] = biological target: T1, α4β2 subtype of nicotinic receptors (neuronal nicotinic receptors) (Rattus norvegicus, UniProt P09483+P12390); assay: In vitro inhibition of 3H-epibatidin binding
T1 construct: The forebrain (÷cerebellum) from a male Wistar rat (150-250 g) is homogenized; from tissue; host or cells: rat forebrain (without cerebellum) homogenate (male Wistar)
T1 sequence (P09483 31-630): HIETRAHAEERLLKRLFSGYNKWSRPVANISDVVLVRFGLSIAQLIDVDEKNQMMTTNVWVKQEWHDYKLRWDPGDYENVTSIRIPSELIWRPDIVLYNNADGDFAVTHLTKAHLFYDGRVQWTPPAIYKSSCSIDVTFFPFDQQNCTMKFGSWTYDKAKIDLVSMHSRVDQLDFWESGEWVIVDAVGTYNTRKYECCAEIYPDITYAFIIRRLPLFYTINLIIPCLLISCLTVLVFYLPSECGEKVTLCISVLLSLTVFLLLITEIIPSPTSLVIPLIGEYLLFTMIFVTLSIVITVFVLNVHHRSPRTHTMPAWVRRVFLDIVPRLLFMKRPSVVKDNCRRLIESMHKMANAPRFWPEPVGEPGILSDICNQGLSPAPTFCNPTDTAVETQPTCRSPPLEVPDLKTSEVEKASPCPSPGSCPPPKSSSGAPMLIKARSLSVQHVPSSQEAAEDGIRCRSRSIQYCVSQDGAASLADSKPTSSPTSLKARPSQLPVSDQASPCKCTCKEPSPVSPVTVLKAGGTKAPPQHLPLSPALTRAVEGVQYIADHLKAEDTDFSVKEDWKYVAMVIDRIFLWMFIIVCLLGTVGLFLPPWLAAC
T1 sequence (P12390 25-500): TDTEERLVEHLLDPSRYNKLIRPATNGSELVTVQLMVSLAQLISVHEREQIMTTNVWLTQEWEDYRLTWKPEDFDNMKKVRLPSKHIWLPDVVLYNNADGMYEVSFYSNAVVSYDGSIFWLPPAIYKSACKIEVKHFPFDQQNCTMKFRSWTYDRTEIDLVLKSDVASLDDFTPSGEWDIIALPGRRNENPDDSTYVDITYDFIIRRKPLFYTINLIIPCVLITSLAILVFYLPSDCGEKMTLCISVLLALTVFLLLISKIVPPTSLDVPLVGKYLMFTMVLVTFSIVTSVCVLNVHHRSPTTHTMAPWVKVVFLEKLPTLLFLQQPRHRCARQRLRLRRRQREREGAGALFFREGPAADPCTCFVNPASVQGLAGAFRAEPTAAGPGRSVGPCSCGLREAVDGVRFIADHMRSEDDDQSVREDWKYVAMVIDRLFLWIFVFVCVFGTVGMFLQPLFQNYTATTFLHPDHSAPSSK
Description: In Vitro Inhibition of ^3H-epibatidin Binding
The high affinity binding site for ^3H-epibatidin is most certainly binding to the α4β2 subtype of nicotinic receptors. The identity of the low affinity site is still unknown; does it represent a second nicotinic receptor or a second site in the same receptor.
Tissue preparation: Preparations are performed at 0-4° C. unless otherwise indicated. The forebrain (÷cerebellum) from a male Wistar rat (150-250 g) is homogenized for 10-20 sec in 20 ml Tris, HCl (50 mM, pH 7.4) using an Ultra-Turrax homogenizer. The tissue suspension is centrifuged at 27,000×g for 10 min. The supernatant is discarded and the pellet is washed three times by centrifugation at 27,000×g for 10 min in 20 ml fresh buffer, and the final pellet is resuspended in fresh buffer (400 ml per g of original tissue) and used for binding assays.
Assay: Aliquots of 2.0 ml homogenate are added to 0.100 ml of test solution and 0.100 ml of ^3H-epibatidin (0.3 nM, final concentration), mixed and incubated for 60 min at room temperature. Non-specific binding is determined using (−)-nicotine (30 μM, final concentration). After incubation the samples are poured directly onto Whatman GF/C glass fibre filters (presoaked in 0.1% PEI for at least 20 min) under suction and immediately washed with 2×5 ml ice-cold buffer. The amount of radioactivity on the filters is determined by conventional liquid scintillation counting. Specific binding is total binding minus non-specific binding.

[3] = biological target: nAChR formed by the α7 subunit isoform (Rattus norvegicus, UniProt Q05941); assay: biochemical; format: binding
Chain of nAChR formed by the α7 subunit isoform (Q05941 23-502): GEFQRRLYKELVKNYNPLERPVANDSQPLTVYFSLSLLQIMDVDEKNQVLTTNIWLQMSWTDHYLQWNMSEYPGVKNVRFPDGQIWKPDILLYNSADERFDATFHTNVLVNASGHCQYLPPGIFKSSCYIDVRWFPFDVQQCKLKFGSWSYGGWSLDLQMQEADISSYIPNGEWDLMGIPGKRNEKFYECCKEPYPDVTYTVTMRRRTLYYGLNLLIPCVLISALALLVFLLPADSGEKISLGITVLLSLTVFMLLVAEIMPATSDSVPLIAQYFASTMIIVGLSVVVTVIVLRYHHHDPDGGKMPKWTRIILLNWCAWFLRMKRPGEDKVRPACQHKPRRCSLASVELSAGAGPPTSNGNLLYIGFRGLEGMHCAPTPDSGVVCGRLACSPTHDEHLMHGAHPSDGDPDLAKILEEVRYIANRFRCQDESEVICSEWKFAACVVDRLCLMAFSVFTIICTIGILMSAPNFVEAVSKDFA

[4] = approximate potency, times that of morphine; cited from earlier work
[5] = read-out: 3H-α-bungarotoxin IC50

Chain of nAChRs comprised of α4 and β2 subunits (P09483 31-630): as the sequence (P09483 31-630) above
Chain of nAChRs comprised of α4 and β2 subunits (P12390 25-500): as the sequence (P12390 25-500) above

Row | Compound | IC50 [1] | IC50 [2] | IC50 [3, 5] | melting point | IC50 ([1]; rat cerebral cortex homogenate, 1 nM 3H-cytisine, 90 min at 2° C., read-out: 3H-cytisine IC50) | IC50 ([2]; rat forebrain homogenate, 0.3 nM 3H-epibatidin, 60 min at room temperature, read-out: 3H-epibatidin IC50) | IC50 [3] | analgesic potency relative to morphine [4]
1 | CCN1C2C=C(c3cccnc3)CC1CCC2.O=C(O)/C=C/C(=O)O (racemic) [Compound 6a, (±)-9-Ethyl-3-(3-pyridyl)-9-azabicyclo[3.3.1]non-2-ene Fumaric Acid Salt] | 1800 nM | 1700 nM | 5800 nM | 193 to 195 °C |  |  |  | 
2 | CN1C2C=C(c3cnc4ccccc4c3)CC1CCC2.O=C(O)/C=C/C(=O)O (racemic) [Compound 6b, (±)-3-(3-Quinolinyl)-9-methyl-9-azabicyclo[3.3.1]non-2-ene Fumaric Acid Salt] |  |  |  | 195 to 197 °C | 1000 nM | 8300 nM | 350 nM | 
3 | CN1[C@@H]2CCC[C@H]1C[C@H](c1cccnc1)C2 [Compound 8a, Exo-9-Methyl-3-(3-pyridyl)-9-azabicyclo[3.3.1]nonane] | 18 nM | 110 nM | 1400 nM | 69 to 70 °C |  |  |  | 
4 | Clc1ccc(C2CC3CCC2N3)cn1 (stereo not shown) [Epibatidine] |  |  |  |  |  |  |  | ~500 times
